Assays:
MDA-MB-231 = assay: Antiproliferative activity against human MDA-MB-231 cells after 72 hrs by MTT assay; assay type: functional, cell-based; details: MDA-MB-231, 72 h
MCF7 = assay: Antiproliferative activity against human MCF7 cells after 72 hrs by MTT assay; assay type: functional, cell-based; details: MCF7, 72 h
HCT-116 = assay: Antiproliferative activity against human HCT116 cells after 72 hrs by MTT assay; assay type: functional, cell-based; details: HCT-116, 72 h
PC-3 = assay: Antiproliferative activity against human PC3 cells after 72 hrs by MTT assay; assay type: functional, cell-based; details: PC-3, 72 h
[1] = Antiproliferative activity against mouse TAMH cells after 72 hrs by MTT assay; assay type: cell-based
[2] = Selectivity index, ratio of CC50 for human AC10 cells to IC50 for human HCT116 cells; assay type: toxicity; details: AC10 cells (CC50) and HCT116 cells (IC50)
[3] = target: T1, Protein deacetylase HDAC6 (Homo sapiens, UniProt Q9UBN7); assay: Inhibition of HDAC6 (unknown origin) using Arg-His-Lys-Lys(Ac) as substrate preincubated with enzyme followed by substrate addition for 2 hrs and measured for 1.5 hrs at 15 mins time interval by fluorescence assay
T1 sequence (Q9UBN7 whole entry): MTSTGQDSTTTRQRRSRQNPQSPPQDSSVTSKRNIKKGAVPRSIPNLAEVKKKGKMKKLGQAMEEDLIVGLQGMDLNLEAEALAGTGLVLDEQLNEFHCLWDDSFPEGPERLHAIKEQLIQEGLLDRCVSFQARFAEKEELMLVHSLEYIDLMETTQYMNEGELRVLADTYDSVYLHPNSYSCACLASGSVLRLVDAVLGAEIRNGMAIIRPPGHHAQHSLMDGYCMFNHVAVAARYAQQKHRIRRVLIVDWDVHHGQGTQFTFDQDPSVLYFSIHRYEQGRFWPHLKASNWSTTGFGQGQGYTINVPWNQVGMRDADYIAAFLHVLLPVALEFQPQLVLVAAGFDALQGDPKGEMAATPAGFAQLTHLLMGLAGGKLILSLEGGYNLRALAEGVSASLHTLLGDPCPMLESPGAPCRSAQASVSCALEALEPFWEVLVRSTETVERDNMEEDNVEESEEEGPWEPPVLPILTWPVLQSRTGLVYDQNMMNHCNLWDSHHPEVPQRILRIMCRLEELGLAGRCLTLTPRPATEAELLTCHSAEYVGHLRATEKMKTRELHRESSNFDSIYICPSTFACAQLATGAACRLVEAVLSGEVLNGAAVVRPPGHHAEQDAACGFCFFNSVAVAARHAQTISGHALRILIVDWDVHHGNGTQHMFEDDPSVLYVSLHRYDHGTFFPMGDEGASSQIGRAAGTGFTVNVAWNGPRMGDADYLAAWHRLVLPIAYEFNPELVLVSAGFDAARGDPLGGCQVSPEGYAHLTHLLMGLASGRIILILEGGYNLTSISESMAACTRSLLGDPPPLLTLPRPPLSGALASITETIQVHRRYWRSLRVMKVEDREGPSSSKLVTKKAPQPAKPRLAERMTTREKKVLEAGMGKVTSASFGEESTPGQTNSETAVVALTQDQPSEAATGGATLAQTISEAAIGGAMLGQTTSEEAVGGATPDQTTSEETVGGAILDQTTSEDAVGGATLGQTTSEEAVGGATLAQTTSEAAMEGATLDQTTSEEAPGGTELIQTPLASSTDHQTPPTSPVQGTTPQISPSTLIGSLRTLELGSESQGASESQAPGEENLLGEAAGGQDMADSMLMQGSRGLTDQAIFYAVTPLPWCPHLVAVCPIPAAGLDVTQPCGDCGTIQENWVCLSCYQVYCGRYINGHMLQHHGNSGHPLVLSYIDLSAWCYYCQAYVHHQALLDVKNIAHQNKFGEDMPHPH

Histone deacetylase 1 = Histone deacetylase 1 (Homo sapiens, UniProt Q13547); assay: Inhibition of HDAC1 (unknown origin) using Arg-His-Lys-Lys(Ac) as substrate preincubated with enzyme followed by substrate addition for 2 hrs and measured for 1.5 hrs at 15 mins time interval by fluorescence assay
[4] = Selectivity index, ratio of CC50 for human AC10 cells to IC50 for human PC3 cells; assay type: toxicity; details: AC10 cells (CC50) and PC3 cells (IC50)
[5] = target: Tyrosine-protein kinase JAK2 (Homo sapiens, UniProt O60674); assay: Inhibition of human JAK2 using poly(Glu:Tyr)(4:1) as substrate preincubated for 20 mins followed by [gamma33P]ATP addition measured after 120 mins by ion exchange filter paper method
[6] = Selectivity index, ratio of CC50 for human AC10 cells to IC50 for human MCF7 cells; assay type: toxicity; details: AC10 cells (CC50) and MCF7 cells (IC50)
[7] = Selectivity index, ratio of CC50 for mouse TAMH cells to IC50 for human MCF7 cells; assay type: toxicity; details: TAMH cells (CC50) and MCF7 cells (IC50)
[8] = Antiproliferative activity against human AC10 cells after 72 hrs by MTT assay; assay type: cell-based
[9] = Selectivity index, ratio of CC50 for mouse TAMH cells to IC50 for human MDA-MB-231 cells; assay type: toxicity; details: TAMH cells (CC50) and MDA-MB-231 cells (IC50)
[10] = Selectivity index, ratio of CC50 for mouse TAMH cells to IC50 for human HCT116 cells; assay type: toxicity; details: TAMH cells (CC50) and HCT116 cells (IC50)
[11] = Selectivity index, ratio of CC50 for human AC10 cells to IC50 for human MDA-MB-231 cells; assay type: toxicity; details: AC10 cells (CC50) and MDA-MB-231 cells (IC50)
[12] = Selectivity index, ratio of CC50 for mouse TAMH cells to IC50 for human PC3 cells; assay type: toxicity; details: TAMH cells (CC50) and PC3 cells (IC50)
Jurkat = assay: Antiproliferative activity against human Jurkat cells after 72 hrs by MTT assay; assay type: functional, cell-based
HEL 92.1.7 = assay: cells; assay type: functional, cell-based; details: Homo sapiens, HEL 92.1.7, 72 h
Description: Antiproliferative activity against human HEL 92.1.7 cells after 72 hrs by MTT assay

KMS-12-BM = assay: Antiproliferative activity against human KMS-12-BM cells after 72 hrs by MTT assay; assay type: functional, cell-based
[13] = Antiproliferative activity against human XG6 cells after 72 hrs by MTT assay; assay type: functional, cell-based; details: XG6, 72 h

Sequence of Tyrosine-protein kinase JAK2 (O60674 whole entry): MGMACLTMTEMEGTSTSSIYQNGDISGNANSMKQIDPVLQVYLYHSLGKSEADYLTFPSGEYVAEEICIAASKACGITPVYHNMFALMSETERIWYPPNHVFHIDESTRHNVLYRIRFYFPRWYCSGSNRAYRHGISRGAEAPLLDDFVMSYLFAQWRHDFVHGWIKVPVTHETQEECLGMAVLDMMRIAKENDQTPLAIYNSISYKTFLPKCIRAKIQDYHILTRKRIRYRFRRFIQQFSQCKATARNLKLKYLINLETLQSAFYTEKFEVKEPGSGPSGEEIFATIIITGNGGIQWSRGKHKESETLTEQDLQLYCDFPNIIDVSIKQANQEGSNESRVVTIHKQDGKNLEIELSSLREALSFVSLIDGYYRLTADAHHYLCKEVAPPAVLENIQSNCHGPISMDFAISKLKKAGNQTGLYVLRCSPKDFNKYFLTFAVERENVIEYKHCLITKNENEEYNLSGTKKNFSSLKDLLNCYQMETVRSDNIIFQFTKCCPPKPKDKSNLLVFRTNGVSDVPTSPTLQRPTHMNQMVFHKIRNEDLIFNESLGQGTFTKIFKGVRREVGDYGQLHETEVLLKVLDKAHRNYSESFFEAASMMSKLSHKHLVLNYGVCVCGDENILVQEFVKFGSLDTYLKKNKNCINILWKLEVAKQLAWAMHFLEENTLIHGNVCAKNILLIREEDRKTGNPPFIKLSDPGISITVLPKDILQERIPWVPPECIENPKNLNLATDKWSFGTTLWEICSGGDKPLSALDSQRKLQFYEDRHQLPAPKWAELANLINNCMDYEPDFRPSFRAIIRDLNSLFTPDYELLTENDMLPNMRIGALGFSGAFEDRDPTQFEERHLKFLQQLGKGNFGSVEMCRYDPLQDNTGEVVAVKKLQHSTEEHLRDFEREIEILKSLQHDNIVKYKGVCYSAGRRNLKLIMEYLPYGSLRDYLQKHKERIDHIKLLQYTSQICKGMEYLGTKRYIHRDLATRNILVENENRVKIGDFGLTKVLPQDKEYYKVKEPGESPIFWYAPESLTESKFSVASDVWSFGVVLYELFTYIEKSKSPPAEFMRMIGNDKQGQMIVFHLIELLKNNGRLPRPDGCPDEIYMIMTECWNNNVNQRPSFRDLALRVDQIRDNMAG
Sequence of Histone deacetylase 1 (Q13547 whole entry): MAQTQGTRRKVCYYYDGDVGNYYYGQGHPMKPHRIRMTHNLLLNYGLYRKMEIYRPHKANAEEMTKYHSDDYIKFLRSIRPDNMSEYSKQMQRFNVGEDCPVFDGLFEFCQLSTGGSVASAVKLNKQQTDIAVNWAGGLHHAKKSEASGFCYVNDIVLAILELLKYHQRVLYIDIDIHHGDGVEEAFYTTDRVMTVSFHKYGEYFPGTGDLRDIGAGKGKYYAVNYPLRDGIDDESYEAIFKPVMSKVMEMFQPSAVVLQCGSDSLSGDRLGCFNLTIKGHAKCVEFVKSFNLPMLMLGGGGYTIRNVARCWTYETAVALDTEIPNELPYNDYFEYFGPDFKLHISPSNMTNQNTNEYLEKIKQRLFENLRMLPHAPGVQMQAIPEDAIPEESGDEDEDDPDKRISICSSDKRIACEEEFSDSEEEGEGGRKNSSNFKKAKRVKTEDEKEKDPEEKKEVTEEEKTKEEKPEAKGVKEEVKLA

IC50 (MDA-MB-231) [nM] | IC50 (MCF7) [nM] | IC50 (HCT-116) [nM] | IC50 (PC-3) [nM] | IC50 [3] [nM] | IC50 (Histone deacetylase 1) [nM] | IC50 [5] [nM] | Compound | CC50 at 72 h [1] [nM] | selectivity ratio [2] | selectivity ratio [4] | selectivity ratio [6] | selectivity ratio [7] | CC50 at 72 h [8] [nM] | selectivity ratio [9] | selectivity ratio [10] | selectivity ratio [11] | selectivity ratio [12] | other results
– | 810 | – | – | – | – | – | O=C(CCCCCCC(=O)Nc1ccccc1)NO [VORINOSTAT] | – | – | – | – | – | – | – | – | – | – | –
– | – | – | – | 9 | 179 | 6.6 | O=C(CCCCCCC(=O)Nc1ccc(-c2ccnc(Nc3cccc(N4CCCCC4)c3)n2)cc1)NO | 4690 | 3.2 | 7.12 | 5.04 | 4.42 | 5340 | 3.53 | 2.81 | 4.02 | 6.25 | –
2480 | 320 | 1150 | 340 | 0.81 | 32.4 | 9.2 | CC(=O)Nc1ccc(-c2ccnc(Nc3cccc(NC(=O)CCCCCCC(=O)NO)c3)n2)cc1 | 12500 | 9.91 | – | – | – | 19500 | 8.14 | 6.36 | 12.7 | – | IC50 (Jurkat): > 10000 nM; IC50 (HEL 92.1.7): > 10000 nM
970 | 1300 | 1050 | 1040 | 2.1 | 139 | 4.3 | Cc1cnc(Nc2ccc(N3CCN(C)CC3)cc2)nc1-c1ccc(NC(=O)CCCCCCC(=O)NO)cc1 | 7480 | 3.54 | 3.58 | 2.86 | 5.75 | 3720 | 7.71 | 7.12 | 3.84 | 7.19 | –
270 | 330 | 190 | 210 | 1.44 | 3.8 | 41.3 | O=C(CCCCCCC(=O)Nc1ccc(-c2ccnc(Nc3ccccc3)n2)cc1)NO | 7280 | 15.8 | 14.3 | 9.12 | 22.1 | 3010 | 27 | 38.3 | 11.2 | 34.7 | –
2830 | 1890 | 1070 | 5580 | 23 | 934 | – | O=C(CCCCCCC(=O)Nc1ccc(-c2ccnc(Nc3ccc(N4CCCCC4)cc3)n2)cc1)NO | 12900 | – | – | – | – | 11700 | – | – | – | – | –
1400 | 1710 | 1190 | 2760 | 6.1 | 155 | 3.9 | CC(=O)Nc1ccc(-c2nc(Nc3cccc(OCCCCCCC(=O)NO)c3)ncc2C)cc1 | 3940 | 4.07 | 1.75 | 2.83 | 2.3 | 4840 | 2.81 | 3.31 | 3.46 | 1.43 | –
1230 | 2470 | 2530 | 1740 | 3.7 | 289 | – | Cc1cnc(Nc2ccc(N3CCOCC3)cc2)nc1-c1ccc(NC(=O)CCCCCCC(=O)NO)cc1 | 7470 | – | – | – | – | 6060 | – | – | – | – | –

Second part, the compound before the results:

Compound | IC50 (MDA-MB-231) [nM] | IC50 (MCF7) [nM] | IC50 (HCT-116) [nM] | IC50 (PC-3) [nM] | IC50 [3] [nM] | IC50 (Histone deacetylase 1) [nM] | IC50 [5] [nM] | CC50 at 72 h [1] [nM] | selectivity ratio [2] | selectivity ratio [4] | selectivity ratio [6] | selectivity ratio [7] | CC50 at 72 h [8] [nM] | selectivity ratio [9] | selectivity ratio [10] | selectivity ratio [11] | selectivity ratio [12] | other results
O=C(Nc1ccc(-c2ccnc(Nc3ccc(N4CCOCC4)cc3)n2)cc1)[C@@H]1CCCN1 | 9670 | 27200 | 7340 | 14900 | – | – | – | – | – | – | – | – | – | – | – | – | – | –
O=C(CCCCCCOc1ccc2cc1COC/C=C/COCc1cccc(c1)-c1ccnc(n1)N2)NO | – | – | – | 1700 | – | – | – | – | – | – | – | – | – | – | – | – | – | –
CC(=O)Nc1ccc(-c2nc(Nc3ccc(OCCCCCC(=O)NO)cc3)ncc2C)cc1 | 1060 | 2370 | 920 | 2410 | 3.5 | 260 | 25.6 | 5580 | 18.4 | 7.02 | 7.14 | 2.35 | 16900 | 5.26 | 6.07 | 16 | 2.32 | –
CN1CCN(CC(=O)Nc2ccc(-c3ccnc(Nc4ccc(OCCCCCCC(=O)NO)cc4)n3)cc2)CC1 | 3880 | 4840 | 1690 | 4090 | 6.1 | 142 | 95.5 | 8070 | 2.43 | 1 | 0.85 | 1.67 | 4100 | 2.08 | 4.78 | 1.06 | 1.97 | –
CC(=O)Nc1ccc(-c2ccnc(Nc3ccc(NC(=O)CCCCC(=O)NO)cc3)n2)cc1 | 32100 | 43400 | 65600 | 47300 | 117 | 3350 | 58.3 | – | – | – | – | – | – | – | – | – | – | –
CC(=O)Nc1ccc(-c2ccnc(Nc3ccc(N4CCCCC4)cc3)n2)cc1 | – | – | – | – | – | – | 2.9 | – | – | – | – | – | – | – | – | – | – | –
CC(CCCCCC(=O)NO)n1cc(-c2ncnc3[nH]ccc23)cn1 (centres undefined) | 790 | 840 | 2320 | 2410 | – | – | – | – | – | – | – | – | – | – | – | – | – | IC50 (KMS-12-BM): 2020 nM; IC50 (Jurkat): 470 nM; IC50 [13]: 2010 nM; IC50 (HEL 92.1.7): 1320 nM
CC(=O)Nc1ccc(-c2ccnc(Nc3cccc(N4CCOCC4)c3)n2)cc1 | – | – | – | – | – | – | 19.6 | – | – | – | – | – | – | – | – | – | – | –
CC(=O)Nc1ccc(-c2ccnc(Nc3cccc(N4CCCCC4)c3)n2)cc1 | – | – | – | – | – | – | 13.8 | – | – | – | – | – | – | – | – | – | – | –
CC(=O)Nc1ccc(-c2ccnc(Nc3ccc(N4CCN(C)CC4)cc3)n2)cc1 | – | – | – | – | – | – | 7.9 | – | – | – | – | – | – | – | – | – | – | –
COC(=O)CCCCCCOc1ccc(Nc2nccc(-c3ccc(NC(C)=O)cc3)n2)cc1 | – | – | – | – | 3150 | > 10000 | 239 | – | – | – | – | – | – | – | – | – | – | –
CN1CCN(CC(=O)Nc2ccc(-c3ccnc(Nc4cccc(OCCCCCCC(=O)NO)c4)n3)cc2)CC1 | 650 | 1320 | 770 | 1150 | 6.8 | 348 | 109 | 5110 | 8.14 | 5.45 | 4.75 | 3.87 | 6270 | 7.86 | 6.64 | 9.65 | 4.44 | –

Source: ChEMBL document CHEMBL4265943, “Design and synthesis of potent dual inhibitors of JAK2 and HDAC based on fusing the pharmacophores of XL019 and vorinostat” (Eur J Med Chem, 2018)
